Our source for the IC50, AC50 and EC50 values is ChEMBL document CHEMBL1201862, “PubChem BioAssay data set” (2004).

Test [1] in a line: nonselective StAR promoter luciferase inhibitors – cell-based, luminescence, luciferase reporter, counter-screen for LRH-1 inverse agonist project, dose response (AID 651969). The class given is functional. In general terms: In a reporter assay the amount or activity of a reporter protein is the signal.
Another test addresses Steroidogenic factor 1 (Homo sapiens, UniProt Q13285). In words: Counterscreen for inverse agonists of the liver receptor homolog-1 (LRH-1; NR5A2): Luminescence-based cell-based high throughput dose response assay to identify inverse agonists of the Steroidogenic Factor 1 Nuclear Receptor (SF1; NR5A1). It counts as functional. (Counterscreens check selectivity or assay interference.)

In test [2] the target is Nuclear receptor subfamily 5 group A member 2 (Homo sapiens, UniProt O00482). The class given is functional, cell-based.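 Also: HEK293T cells transfected with LRH-1 and a StAR promoter luciferase reporter; potency for inhibitors that lower LRH-1 driven reporter light.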
In test [3] the target is T1, Beta-lactamase (Pseudomonas aeruginosa, UniProt Q79MP6). Kind of test: inhibition of IMP-1 beta-lactamase activity – biochemical, epi-absorbance, selectivity assay for VIM-2 inhibitor project, dose response (AID 1920).
The target of test [4] is Beta-lactamase (Salmonella choleraesuis (strain SC-B67), UniProt Q5J463). Kind of test: Epi-absorbance-based counterscreen for selective VIM-2 inhibitors: dose response biochemical high throughput screening assay to identify inhibitors of TEM-1 serine-beta-lactamase.
Test [5] concerns the target T1, Beta-lactamase. Kind of test: […] counterscreen for selective VIM-2 inhibitors: dose response biochemical high throughput screening assay to identify inhibitors of IMP-1 metallo-beta-lactamase.
Test [6] has as its target T2, Small ubiquitin-related modifier 1 (Homo sapiens, UniProt P63165). Kind of test: SUMO1 protein-protein binding blockers, potency – biochemical, FRET, dose response (AID 624383). It counts as functional. Particulars: read-out: IC50_Mean.
Test [7] addresses T2, Small ubiquitin-related modifier 1. Kind of test: SUMO1 protein interaction blockers, potency – biochemical, fluorescence polarization, uHTS hits, dose response (AID 624382). It counts as functional. Particulars: read-out: IC50_Mean.
The nature of test [8]: inhibition of ARNT PAS-B/TACC3 complex formation – biochemical, AlphaScreen, cherry-picked samples, confirmation (AID 651703).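 Also: His-tagged ARNT PAS-B domain paired with GST-TACC3 E629A dimer coactivator fragment; potency of inhibitors that break up the complex and lower AlphaScreen signal.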 It counts as functional, Homo sapiens. A general note: Bead proximity is the source of the signal in Alpha formats.
For test [9], the target named is Voltage-dependent T-type calcium channel subunit alpha-1H (Homo sapiens, UniProt O95180). The class given is functional.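 Also: channel activity triggered by adding a high calcium stimulation buffer.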
Test [10] deals with Matrix metalloproteinase-14 (Homo sapiens, UniProt P50281). Kind of test: Dose Response confirmation of uHTS hits for a small molecule inhibitors of MT1-MMP activation in a fluorescence assay set 1. The class given is functional.
The target of test [11] is T3, Sentrin-specific protease 1 (Homo sapiens, UniProt Q9P0U3). In words: SENP1 catalytic domain blockers, concentration series – biochemical, kinetic FRET, dose response (AID 651697). The class given is functional. Particulars: read-out: IC50_Mean.
Test [12] has as its target T3, Sentrin-specific protease 1. Kind of test: Dose response confirmation of small molecule inhibitors of the catalytic domain of the SUMO protease, SENP1 in a FRET assay. It counts as functional. Particulars: read-out: IC50_Mean.
Test [13] relates to HEK293. In words: cells. The following applies: Homo sapiens. It counts as functional, cell-based.
Test [14] is described as follows: blockers of HIV-1 envelope-mediated cell-cell fusion – cherry-pick, dose response (AID 652057). It counts as functional, cell-based.
Test [15] addresses Nucleotide-binding oligomerization domain-containing protein 2 (Homo sapiens, UniProt Q9HC29). Kind of test: inhibition of NOD2-driven NF-kB reporter – cell-based, luminescence, uHTS, HEK293 (AID 1566). The class given is functional.
Test [16] deals with HEK293. In words: cells. It counts as functional, cell-based. The following applies: Homo sapiens. The source holds these as a separate data set.
Test [17] has as its system HEK293. Kind of test: cells. The class given is functional, cell-based. The following applies: Homo sapiens. This is another data set of the same source.
Test [18] in a line: blockers of HIV-1 ZM109 envelope-driven cell-cell fusion – HeLa effector, CEM target cells, luciferase, cherry-pick, dose response (AID 652058).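 Also: luciferase signal from HIV-1 Env mediated cell-cell fusion of effector and target cells.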 It counts as functional, cell-based.
The next test concerns the target T4, Interleukin-8 (Homo sapiens, UniProt P10145).
T4 sequence (P10145 whole entry): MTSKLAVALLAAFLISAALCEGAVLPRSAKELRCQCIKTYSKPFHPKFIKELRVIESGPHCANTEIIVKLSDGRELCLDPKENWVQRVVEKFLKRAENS
In words: Dose Response confirmation of uHTS small molecule hits for cystic fibrosis induced NFkb Inhibitors in a PAF-induced IL8 counterscreen. The class given is functional. Particulars: read-out: IC50_Mean.

The nature of test [19]: off-target signal loss in HeLa-CEM21 co-culture – HeLa F-luc CTL cells, cherry-picked, counter-screen for HIV-1 Env fusion inhibitor project, dose response (AID 652040).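 Also: potency for signal decrease marking cytotoxic or nonspecific inhibition.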 It counts as functional, cell-based.
Test [20] deals with HEK293. In words: NOD2 signaling inhibitors in MDP-stimulated cells, cell-based, uHTS, luminescence (AID 2001). It counts as functional. The following applies: Homo sapiens.
The test system of test [21] is HEK293. Kind of test: inhibition of NOD1-driven NF-kB reporter – cell-based, luminescence, uHTS, primary screen (AID 1578). The class given is functional. Particulars: Homo sapiens.
Test [22] in a line: HIV-1 AD8 envelope cell-cell fusion blockers – cherry-pick, dose response (AID 652062).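 Also: luciferase signal from cell-cell fusion driven by HIV-1 clade B AD8 Env; potency is for inhibitors of fusion seen as a drop in luminescence.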 The class given is functional, cell-based.

Molecules are shown by their SMILES. Activity calls are given as the source filed them. Some results are limits rather than exact numbers.

T3 sequence (Q9P0U3 whole entry, the tested form may be a part): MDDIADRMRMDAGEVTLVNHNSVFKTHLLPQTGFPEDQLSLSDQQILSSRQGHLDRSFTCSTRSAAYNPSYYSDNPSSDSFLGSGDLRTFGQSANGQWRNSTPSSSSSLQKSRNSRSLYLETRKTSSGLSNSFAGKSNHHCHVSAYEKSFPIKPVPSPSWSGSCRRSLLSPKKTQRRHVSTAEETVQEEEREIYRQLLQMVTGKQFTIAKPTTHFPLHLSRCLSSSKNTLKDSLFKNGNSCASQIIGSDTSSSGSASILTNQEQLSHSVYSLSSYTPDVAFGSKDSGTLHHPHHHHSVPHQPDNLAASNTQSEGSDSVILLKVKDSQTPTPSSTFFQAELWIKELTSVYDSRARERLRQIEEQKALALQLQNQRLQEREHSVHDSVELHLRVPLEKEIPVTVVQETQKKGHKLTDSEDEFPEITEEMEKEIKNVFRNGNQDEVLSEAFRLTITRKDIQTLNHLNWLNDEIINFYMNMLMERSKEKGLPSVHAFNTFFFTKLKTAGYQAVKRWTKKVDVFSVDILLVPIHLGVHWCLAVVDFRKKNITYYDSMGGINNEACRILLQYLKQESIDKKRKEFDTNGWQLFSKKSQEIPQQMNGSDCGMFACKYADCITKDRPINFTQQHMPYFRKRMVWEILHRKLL
T1 sequence (Q79MP6 whole entry): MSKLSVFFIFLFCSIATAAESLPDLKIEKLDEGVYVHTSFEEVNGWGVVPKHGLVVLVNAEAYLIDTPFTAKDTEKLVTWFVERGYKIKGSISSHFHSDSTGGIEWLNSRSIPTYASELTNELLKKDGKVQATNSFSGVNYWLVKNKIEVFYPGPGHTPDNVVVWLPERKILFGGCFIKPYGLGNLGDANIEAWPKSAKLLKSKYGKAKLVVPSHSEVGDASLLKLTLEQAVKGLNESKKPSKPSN
T2 sequence (P63165 whole entry): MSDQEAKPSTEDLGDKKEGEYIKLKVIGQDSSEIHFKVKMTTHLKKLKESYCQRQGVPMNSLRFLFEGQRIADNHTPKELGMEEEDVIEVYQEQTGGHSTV
Chain of Steroidogenic factor 1 (Q13285 whole entry): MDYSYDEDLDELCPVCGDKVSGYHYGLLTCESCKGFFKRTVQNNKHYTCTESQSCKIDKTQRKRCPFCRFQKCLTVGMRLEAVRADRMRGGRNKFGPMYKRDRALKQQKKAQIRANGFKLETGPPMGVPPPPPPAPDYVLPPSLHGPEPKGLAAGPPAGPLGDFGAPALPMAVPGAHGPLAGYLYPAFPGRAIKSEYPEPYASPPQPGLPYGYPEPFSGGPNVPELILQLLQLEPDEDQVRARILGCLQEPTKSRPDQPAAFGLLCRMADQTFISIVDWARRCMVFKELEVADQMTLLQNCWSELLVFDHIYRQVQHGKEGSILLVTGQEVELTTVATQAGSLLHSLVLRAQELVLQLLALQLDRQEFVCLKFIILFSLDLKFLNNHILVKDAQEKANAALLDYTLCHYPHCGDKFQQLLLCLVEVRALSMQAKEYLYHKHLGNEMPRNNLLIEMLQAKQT
Chain of Beta-lactamase (Salmonella choleraesuis (strain SC-B67), UniProt Q5J463) (Q5J463 whole entry): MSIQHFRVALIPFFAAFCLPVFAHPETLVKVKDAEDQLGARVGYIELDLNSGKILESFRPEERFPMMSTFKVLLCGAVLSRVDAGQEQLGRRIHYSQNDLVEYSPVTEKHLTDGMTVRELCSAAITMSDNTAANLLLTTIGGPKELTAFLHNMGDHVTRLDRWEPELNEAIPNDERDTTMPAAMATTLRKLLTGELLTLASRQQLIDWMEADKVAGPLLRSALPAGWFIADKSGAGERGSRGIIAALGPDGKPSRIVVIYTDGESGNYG
Chain of Nucleotide-binding oligomerization domain-containing protein 2 (Q9HC29 whole entry, the tested form may be a part): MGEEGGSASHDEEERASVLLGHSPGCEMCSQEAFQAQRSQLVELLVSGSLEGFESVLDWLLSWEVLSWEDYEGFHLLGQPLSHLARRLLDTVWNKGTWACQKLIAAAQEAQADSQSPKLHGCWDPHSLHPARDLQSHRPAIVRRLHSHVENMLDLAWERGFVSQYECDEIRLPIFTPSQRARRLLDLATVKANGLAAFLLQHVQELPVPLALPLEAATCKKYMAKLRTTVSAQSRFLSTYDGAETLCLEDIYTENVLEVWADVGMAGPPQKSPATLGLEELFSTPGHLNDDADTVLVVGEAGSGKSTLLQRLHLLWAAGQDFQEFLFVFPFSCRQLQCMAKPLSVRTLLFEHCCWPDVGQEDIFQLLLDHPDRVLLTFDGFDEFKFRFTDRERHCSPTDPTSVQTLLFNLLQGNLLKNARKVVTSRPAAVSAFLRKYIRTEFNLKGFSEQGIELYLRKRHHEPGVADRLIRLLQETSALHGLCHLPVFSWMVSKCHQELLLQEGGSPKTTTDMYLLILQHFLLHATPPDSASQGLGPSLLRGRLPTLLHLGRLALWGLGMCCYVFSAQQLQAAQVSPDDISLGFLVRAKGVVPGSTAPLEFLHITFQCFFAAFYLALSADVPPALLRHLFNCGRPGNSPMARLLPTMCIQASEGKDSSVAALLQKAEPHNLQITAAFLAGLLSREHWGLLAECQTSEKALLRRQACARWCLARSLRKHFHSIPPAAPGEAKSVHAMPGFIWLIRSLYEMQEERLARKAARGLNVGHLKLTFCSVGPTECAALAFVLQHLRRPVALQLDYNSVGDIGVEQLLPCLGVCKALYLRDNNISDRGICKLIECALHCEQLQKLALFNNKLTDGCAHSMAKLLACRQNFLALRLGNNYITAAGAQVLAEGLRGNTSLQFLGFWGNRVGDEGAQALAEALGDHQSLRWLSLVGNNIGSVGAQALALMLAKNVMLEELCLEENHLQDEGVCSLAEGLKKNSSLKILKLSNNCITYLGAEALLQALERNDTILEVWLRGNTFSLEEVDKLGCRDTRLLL
Chain of Nuclear receptor subfamily 5 group A member 2 (O00482 whole entry): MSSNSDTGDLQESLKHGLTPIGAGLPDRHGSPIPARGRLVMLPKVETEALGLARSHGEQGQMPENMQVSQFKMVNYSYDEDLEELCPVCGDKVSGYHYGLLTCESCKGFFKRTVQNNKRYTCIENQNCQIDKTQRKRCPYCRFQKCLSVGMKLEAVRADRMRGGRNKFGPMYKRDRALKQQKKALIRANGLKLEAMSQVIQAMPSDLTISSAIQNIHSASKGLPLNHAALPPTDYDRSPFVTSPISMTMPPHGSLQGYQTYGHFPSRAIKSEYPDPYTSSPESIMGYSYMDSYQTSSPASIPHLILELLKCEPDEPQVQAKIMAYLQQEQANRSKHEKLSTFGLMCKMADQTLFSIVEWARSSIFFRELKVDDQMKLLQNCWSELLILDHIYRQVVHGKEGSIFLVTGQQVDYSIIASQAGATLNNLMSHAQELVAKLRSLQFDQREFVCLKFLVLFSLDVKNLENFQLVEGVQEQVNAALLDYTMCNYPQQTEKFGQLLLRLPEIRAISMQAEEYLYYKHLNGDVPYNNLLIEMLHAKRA

`COc1cc(C(=O)Nc2ccccc2N2CCN(S(C)(=O)=O)CC2)cc(OC)c1OC`: the IC50 in test [1] is 35.9 µM (inactive); at Steroidogenic factor 1 it was 7.65 µM (active); in [2] it was 14.6 µM (inactive).
Turning to `COCC(C)NC(=O)c1cc2cccc([N+](=O)[O-])c2[nH]1` (centres undefined), the IC50 on Beta-lactamase [3], at Beta-lactamase [4] and at Beta-lactamase [5] was > 59.6 µM (inactive) each time.
As to `CC(=O)c1sc(Nc2nc3cc4c(cc3s2)OCO4)nc1C`, the IC50 was 11.1 µM (active) in test [6] and > 66.6 µM (inactive) in test [7].
For orientation: AC50 means the concentration giving half of the maximal activity seen. By EC50 is commonly meant the concentration that produces a half-maximal response. As for `COc1ccc(C(c2nnnn2C2CCCC2)N2CCc3ccccc3C2)cc1OC` (centres undefined), the AC50 in test [8] was 132 µM (active). The EC50 in test [9] is 5.07 µM (active).
Turning to `Cc1cccc[n+]1CC(=O)/C=C1\N(C)c2ccccc2C1(C)C`, in test [10], the IC50 was 24.1 µM (inactive).
In the case of `Cc1nc2nonc2c2nccc(O)c12`, the IC50 is 8.83 µM (active) in test [11] and 8.04 µM (active) in test [12].
As to `Cn1c(=O)c2c(nc(Oc3ccc4ccccc4c3)n2C)n(C)c1=O`, the IC50 in the test on HEK293 [13] was > 20 µM (inactive); with HEK293 [16], > 20 µM (inactive); with HEK293 [17], 3.32 µM (active); at Interleukin-8, 14 µM (inactive); in the test on HEK293 [20] it was 3.88 µM (active). The AC50 in test [14] was 11.6 µM (active); in test [18], 40.2 µM (active); in test [19], 18.4 µM (active); in test [22], 2.05 µM (active). Besides, the EC50 in test [15] is 4.28 µM (active); with HEK293 [21], 6.6 µM (active).
